Where two headings read alike, the source gives them in different places.
Assays:
[1] = system: HCV genotype 1; details: cited from earlier work
[2] = patients receiving high dosages of VX-135; cited from earlier work
[3] = human, in vivo; cited from earlier work
[4] = system: HCV replicon replication; experiment: Inhibition of HCV replication (HCV replicon in Huh-luc/neo cells; extrapolated to primary human hepatocytes); assay type: cell-based
[5] = Half-life of the active triphosphate in human hepatocytes; assay type: in vitro ADME; details: plated in 12-well format
Description: Human hepatocyte cells used for half-life determinations were human liver hepatocyte 12-well format cells and were seeded at 0.67 million cells per well. Canine hepatocyte cells used for half-life determinations were beagle dog liver hepatocyte 12-well format cells and were seeded at 0.67 million cells per well. Monkey hepatocyte cells used for half-life determinations were Cynomolgus monkey liver hepatocyte 12-well format cells, and were seeded at 0.9 million cells per well. Rat hepatocyte cells for half-life determinations were Sprague-Dawley (SD) rat liver hepatocyte 12-well format cells, and were seeded at 0.67 million cells per well. All cells were obtained from Life Technologies.

[6] = system: human hepatocytes; experiment: Determination of nucleoside concentrations (dephosphorylated 5′-OH nucleoside) in human hepatocyte media and cell extract; assay type: in vitro ADME; details: 20 μM Formula VII vs Formula II, 24 hours
Description: At 24 hours, media was removed and frozen. Cells were washed twice with cold PBS.
Supernatants were removed and analyzed by LC-MS/MS. […] Samples were centrifuged at 3000 rpm for 15 minutes. Supernatants were removed and analyzed by LC-MS/MS.
Hepatocyte media incubates were removed from the freezer, defrosted and vortexed. […] Supernatants were removed and analyzed by LC-MS/MS. […] Supernatants were removed and analyzed by LC-MS/MS.

[7] = system: human liver hepatocytes; experiment: Triphosphate levels in human hepatocytes after incubation with prodrug; details: incubation with 5 μM prodrug over 48 hours
Description: Fresh liver hepatocytes were received plated in a 12-well or 6-well format (Life Technologies, Catalogue #HMFN12 and #HMNF06). Upon receipt, shipping media was removed immediately and replaced with 1 mL or 2 mL pre-warmed culture medium (Supplemented modified Chee's Media; Xenotech LLC, Catalogue# K2300) for 12- and 6-well formats, respectively. Cells were acclimated overnight at 37° C. with 5% CO2 atmosphere. […] Stability of the compounds in the absence of cells was also assayed. […] Cells were washed twice with cold PBS. 70% cold Methanol (0.75 mL or 1.5 mL, for 12- and 6-well formats, respectively) containing Formula X as an internal standard was added to each well and cells were gently removed from the plate by scraping. The recovered cells suspended in the methanol solution were aspirated into a vial and frozen at −80° C.
Cell solutions were extracted overnight at −80° C. in 70% methanol, removed from the freezer, defrosted and vortexed. Tubes were centrifuged at 3000 rpm for 15 minutes at 4° C. Supernatants were removed and analyzed by LC-MS/MS. […] Supernatants were removed and analyzed by LC-MS/MS. […] The analytes were quantified using linear regression of calibration standard values with instrument response. […]
The general methods of Example 33 were used to determine compound concentrations. […] The results were plotted and the linear regression was calculated using Microsoft Excel.

[8] = system: HCV genotype 1, 2 or 3; details: once-daily 300 mg for seven days; cited from earlier work
[9] = system: HCV; details: several large clinical trials; cited from earlier work
[10] = beagle (dog), Sprague-Dawley (rat), cynomolgus monkey, range over human, dog, monkey and rat hepatocytes, read-out: half-life of active triphosphate in hepatocytes
[11] = 6 well plate (2 ml), 1.7 million cells per well
[12] = 12 well plate (1 ml), 0.67 million cells per well

## CC(C)OC(=O)[C@H](C)NP(=S)(OC[C@H]1O[C@@H](n2ccc(=O)[nH]c2=O)[C@](C)(O)[C@@H]1O)Oc1ccccc1 (single isomer, unassigned) [VX-135]
[1]; 200 mg VX-135 in combination with daclatasvir, 12 weeks of treatment
  completion of treatment rate (SVR12): 91%
[1]; 200 mg VX-135 in combination with daclatasvir, treatment-naïve genotype 1, intent-to-treat
  sustained viral response rate four weeks after completion of treatment (SVR4): 83%
[1]; VX-135 in combination with daclatasvir, one patient
  adverse event: serious adverse event of vomiting/nausea
[2]
  clinical toxicity finding: liver toxicity

## COc1nc(N)nc2c1ncn2[C@@H]1O[C@H](COP(=O)(N[C@@H](C)C(=O)OCC(C)(C)C)Oc2cccc3ccccc23)[C@@H](O)[C@@]1(C)O (some centres unmarked) [BMS-986094]
[3]
  clinical safety outcome: death of a patient due to heart failure

## [2H]c1cn([C@@H]2O[C@H](C([2H])([2H])O[P@@](=O)(N[C@@H](C)C(=O)OC(C)C)Oc3ccccc3)[C@@H](O)[C@@]2(C)O)c(=O)[nH]c1=O [Formula II, (S)-isopropyl 2-(((S)-(((2R,3R,4R,5R)-5-(5-deutero-2,4-dioxo-3,4-dihydropyrimidin-1(2H)-yl)-3,4-dihydroxy-4-methyltetrahydrofuran-2-yl)dideuteromethoxy)(phenoxy)phosphoryl)amino)propanoate]
[4]; Hepatitis C virus, Hepatocyte, read-out: predicted EC50 in primary human hepatocytes
  EC50: 6.25 to 10 nM

## [2H]c1cn(C2OC(C([2H])([2H])OP(=O)(O)OP(=O)(O)OP(=O)(O)O)[C@@H](O)[C@@]2(C)O)c(=O)[nH]c1=O (some centres unmarked) [Formula IV]
[5]; [10]
  half-life: 10 to 30 h
[5]; human, human hepatocytes, read-out: half-life of triphosphate
  half-life: > 24 h

## C[C@@]1(O)[C@H](O)[C@@H](CO)O[C@H]1n1ccc(=O)[nH]c1=O [Formula IX, 2′-C-methyluridine]
[6]; [11]
  higher concentration of undeuterated dephosphorylated 2′-methyl uridine compared to 5′-deuterated form (Formula VI), cell extract (intracellular): 2.8 fold
  higher concentration of undeuterated dephosphorylated 2′-methyl uridine compared to 5′-deuterated form (Formula VI), first value, printed as cell extract: 1.5 fold
[6]; [12]
  higher concentration of undeuterated dephosphorylated 2′-methyl uridine (Formula IX) compared to 5′-deuterated form (Formula VI), cell extract (intracellular): 2.9 fold
  higher concentration of undeuterated dephosphorylated 2′-methyl uridine (Formula IX) compared to 5′-deuterated form (Formula VI), media (extracellular): 1.9 fold

## [2H]c1cn(C2OC(C([2H])([2H])O)[C@@H](O)[C@@]2(C)O)c(=O)[nH]c1=O (some centres unmarked) [Formula VI, 5′-deuterated 2′-C-methyluridine]
[4]; statement in description, poor substrate for nucleoside monophosphate kinase
  activity against hepatitis C viral replication: little activity

## C[C@@]1(F)[C@H](O)[C@@H](COP(=O)(O)OP(=O)(O)OP(=O)(O)O)O[C@H]1n1ccc(=O)[nH]c1=O [GS-7977-TP]
[7]
  time of peak triphosphate levels in human hepatocytes: 24 h
[5]; [10]
  half-life: 8 to 23 h

## CC(C)OC(=O)[C@@H](C)N[P@@](=O)(OC[C@H]1O[C@@H](n2ccc(=O)[nH]c2=O)[C@](C)(Cl)[C@@H]1O)Oc1ccccc1 [IDX21437]
[8]
  mean maximum reduction in viral load: 4.2-4.3 log 10 IU/mL

## CC(C)OC(=O)[C@H](C)N[P@](=O)(OC[C@H]1O[C@@H](n2ccc(=O)[nH]c2=O)C(C)(F)C1O)Oc1ccccc1 (some centres unmarked) [Sofosbuvir]
[9]
  sustained viral response (SVR) of twelve weeks, share of trial participants: 50-90%
